The test system of the experiment is myasthenogenic antibody mAB 198. Briefly: Peptide microarray mimotope screen, binding of mAB 198 to linear and cyclic peptides (fluorescence readout). Particulars: linear mimotopes; binding of mAB 198, relative fluorescent signal after normalization against background. On the set-up: species or system rat. An excerpt:
A custom peptide array of 30000 peptides was synthesized, with peptides of 7-19 amino acids in size; the peptides were based on substitution analyses of 176 AChR-MIR peptides with exchanges of each amino acid positions by each of the 20 common amino acids. Peptides were synthesized directly on a microarray, and screened with monoclonal antibody mAB 198 in order to obtain mimotopes with a binding strength which was improved over the human AChR alpha chain MIR-containing sequence […] (Tzartos et al, 1991; Luo et al, 2009) and over a previously published mimotope sequence ([…]), that was derived from Torpedo AchR with the help of antibody mAB 132A (Trinh et al, 2014). In particular, the wild type AChR-MIR sequence is known to structurally mimic to a certain extent the epitope recognized by myasthenogenic, unwanted and disease-causing antibodies from patients. The mimotope peptide library was designed by permutation of each single amino acid position of these two sequences with all natural amino acids in order to provide a maximally diversified collection of peptide variants. All peptides were synthesized in doublets as linear and as cyclic peptides. The aim was to obtain peptides (mimotopes) that mimic the natural epitope of myasthenogenic antibodies.
For the mimotope screen, the antibody mAB 198 (Absolute Antibody Ltd, UK) was used. This is a prototype antibody that was generated in rats using human AChR (Tzartos et al, 1983; Asher et al, 1993). […] Therefore, mAB198 was used as a surrogate probe to screen for new mimotopes that are capable of mimicking the corresponding AChR-MIR epitope or portions of the epitope.
As a readout, binding of mAB 198 to the 30000 linear and cyclic peptides was measured by fluorescence readout, and peptides were ranked according to their relative fluorescent signal after normalization against the background.
The top-ranked 100 linear and cyclic mimotopes are listed in Table 1 and Table 2 above, respectively.

Consider 1 (LRRNPAD) [compound 1], for which the “relative signal [%]” value came to 100.0%.
Turning to 2 (NPADYRG) [compound 2], the “relative signal [%]” value turned out to be 71.4%.
As to 3 (NPADYHG) [compound 3], the “relative signal [%]” value was 59.3%.
Then 4 (VRLRWNPADYP) [compound 4], with 56.7%; and 5 (LRGNPAD) [compound 5], with 48.0%; and 6 (WNPADYR) [compound 6], with 40.6%.
Regarding 7 (LRFNPAD) [compound 7], the “relative signal [%]” value amounted to 37.1%.
In the case of 8 (GSLRYNP) [compound 8] it was 34.4%.
Regarding 9 (LRVNPADYG) [compound 9], the “relative signal [%]” value is listed as 31.6%.
In the case of 10 (LRRNPADYG) [compound 10] it was 28.3%; in that of 11 (VRLRFNP) [compound 11], 27.1%; in that of 12 (VRLRYNP) [compound 12], 26.3%.
In the case of 13 (LRLNPAD) [compound 13] it was 25.2%; in that of 14 (VRLRRNPAD) [compound 14], 25.0%; in that of 15 (RFNPADY) [compound 15], 21.8%.
For 16 (GSLRFNP) [compound 16], the “relative signal [%]” value was found to be 21.6%.
Take 17 (NPDDYHG) [compound 17]: the “relative signal [%]” value was found to be 21.3%.
Then 18 (NPADYGY) [compound 18], with 21.2%.
In the case of 19 (WNPADYP) [compound 19] it was 20.5%.
In the case of 20 (RLHWNPADY) [compound 20] it was 20.2%; in that of 21 (QWIDVRLRFNP) [compound 21], 20.1%.
On to 22 (NPADYPG) [compound 22], for which the “relative signal [%]” value is 19.8%.
Then 23 (NPADYGH) [compound 23], with 18.1%.
Turning to 24 (RLNPADY) [compound 24], the “relative signal [%]” value is reported as 17.7%.
Then 25 (LRLNPADYG) [compound 25], with 17.3%; and 26 (LLGGGSLRFNP) [compound 26], with 16.7%; and 27 (RYNPADY) [compound 27], with 16.5%.
In the case of 28 (LRYNPAD) [compound 28], the “relative signal [%]” value is reported as 15.9%.
In the case of 29 (LHWNPAD) [compound 29] it was 15.7%; in that of 30 (LRWNPADYH) [compound 30], 15.3%.
In the case of 31 (IDVRLRFNP) [compound 31] it was 15.0%; in that of 32 (RLRVNPADY) [compound 32], 14.9%; in that of 33 (NPADYGD) [compound 33], 14.1%.
Regarding 34 (WNPADYGHI) [compound 34], the “relative signal [%]” value came to 13.7%.
In the case of 35 (YNLKFNP) [compound 35] it was 13.7%; in that of 36 (SLHWNPADY) [compound 36], 13.6%.
In the case of 37 (QWIDVRLRYNP) [compound 37] it was 13.4%; in that of 38 (RGNPADYGG) [compound 38], 13.0%.
Then 39 (GGGSLRFNP) [compound 39], with 13.0%; and 40 (LRINPADYG) [compound 40], with 12.6%; and 41 (RWNPADF) [compound 41], with 12.6%.
As for 42 (RLRWNPADYHG) [compound 42], the “relative signal [%]” value was determined as 12.4%.
In the case of 43 (IDVRLRYNP) [compound 43] it was 12.2%; in that of 44 (RINPADY) [compound 44], 12.2%; in that of 45 (NPADYGR) [compound 45], 12.2%.
Then 46 (RLRFNPADY) [compound 46], with 11.4%.
As to 47 (WNPDDYR) [compound 47], the “relative signal [%]” value is reported as 11.4%.
In the case of 48 (CNLKFNP) [compound 48] it was 11.0%; in that of 49 (SLRINPADY) [compound 49], 11.0%.
In the case of 50 (RLYWNPADY) [compound 50] it was 11.0%.
With 51 (QWVDYNLKFNP) [compound 51], the “relative signal [%]” value is given as 10.9%.
Then 52 (GGGSLRRNPAD) [compound 52], with 10.6%; and 53 (LRWNPADYGGF) [compound 53], with 10.6%.
In the case of 54 (SLRWNPADYHG) [compound 54] it was 10.6%; in that of 55 (NPADYDG) [compound 55], 10.3%; in that of 56 (DVRLRFNPADY) [compound 56], 10.0%.
Regarding 57 (RRNPADY) [compound 57], the “relative signal [%]” value came to 9.9%.
In the case of 58 (RPNPADY) [compound 58] it was 9.5%; in that of 59 (GSLRRNPAD) [compound 59], 9.5%.
In the case of 60 (WNPADYH) [compound 60] it was 9.4%; in that of 61 (RWNPADYGH) [compound 61], 9.4%; in that of 62 (GSLRFNPAD) [compound 62], 9.3%.
In the case of 63 (LRINPAD) [compound 63] it was 9.2%.
For 64 (WRLRWNPAD) [compound 64], the “relative signal [%]” value is recorded as 9.0%.
In the case of 65 (GNPADYGGI) [compound 65] it was 8.9%; in that of 66 (RHNPADY) [compound 66], 8.9%.
In the case of 67 (WNPDDYGHV) [compound 67] it was 8.8%; in that of 68 (RPNPADYGG) [compound 68], 8.6%; in that of 69 (DVRLRINPADY) [compound 69], 8.5%.
Then 70 (YNLKYNP) [compound 70], with 8.3%; and 71 (GGGSLRFNPAD) [compound 71], with 8.1%.
72 (VRHRWNPAD) [compound 72]: the “relative signal [%]” value is 8.1%.
Then 73 (NPADYGI) [compound 73], with 8.0%.
In the case of 74 (IDVRLRFNPAD) [compound 74] it was 7.9%; in that of 75 (NPDDYGH) [compound 75], 7.7%; in that of 76 (VPLRWNPAD) [compound 76], 7.6%.
In the case of 77 (YNLPWNP) [compound 77] it was 7.6%; in that of 78 (VDYNLKFNP) [compound 78], 7.6%; in that of 79 (HWNPADY) [compound 79], 7.4%.
80 (RTNPADY) [compound 80]: the “relative signal [%]” value came to 7.2%.
In the case of 81 (LRWNPADYHGI) [compound 81] it was 7.2%.
Then 82 (GGGSLRYNP) [compound 82], with 7.1%.
In the case of 83 (RLRGNPADY) [compound 83] it was 6.9%.

These data come from patent US20230381328A1, “COMPOUND FOR THE PREVENTION OR TREATMENT OF MYASTHENIA GRAVIS” (ABLEVIA BIOTECH GMBH, priority 2020, published 2023).
